From US7547799B1, “Method for producing phenolic compound” (Sabic Innovative Plastics IP B.V., priority 2008, dated 2009)

Experiment: Determination of the solubility of BMSC in MeOH at 65° C. (with reflux)
Assay type: physicochemical
Procedure: Determination of the Solubility of BMSC in MeOH at 65° C. (with Reflux):
BMSC was loaded in a round bottom flask, a small amount of MeOH was added to the BMSC, to form a slurry. This mixture was heated up to 65° C. under reflux. MeOH was then continuously added under vigorous stirring, until a lucid and colorless solution was obtained.

solubility of BMSC in MeOH (lucid and colorless solution obtained) (65° C., under reflux, vigorous stirring): 5.8 mass %
solution of BMSC in MeOH obtainable under reflux (restated in the discussion): 6%
Compound: COC(=O)c1ccccc1OC(=O)Oc1ccccc1C(=O)OC [BMSC, bismethylsalicylcarbonate]
